According to patent US9492436B2, “Azabenzimidazole derivatives” (Boehringer Ingelheim International GmbH, priority 2013, dated 2016):

Molecular target: T1, AMPK complex 1 (containing alpha1beta1gamma1) (Homo sapiens, UniProt Q13131+Q9Y478)
T1 construct: GST (Glutathion S transferase) (N); made in house; host or cells: baculovirus; virus made in Sf9, expression in High Five cells
Test: In vitro AMPK activation assay (ADP-Glo Kinase Assay)
Type: biochemical
Details: 30 μM ATP, 1 μM peptide, 60 min, room temperature
Excerpt: Activated AMPK complex 1 (containing alpha1beta1gamma1) was obtained from baculovirus expression system. The gene encoding AMPK alpha1 was cloned into the pACG2T vector (BD Biosciences) to obtain a N-terminal Glutathion S transferase (GST)-fusion protein. The genes encoding AMPK beta 1 and gamma1 were cloned into the p2Bac dual multiple cloning site vector (Invitrogen) with beta1 under the control of the p10 promoter and gamma1 under the control of the PH promoter. The transfer vectors containing AMPK were co-transfected individually with AcPNV BacMagic-3 DNA (EMD Millipore) in Sf9 cells and the recombinant baculoviruses were harvested after 5 days, followed by 3 rounds of amplification of the virus stock in Sf9 cells. AMPK (alpha1beta1gamma1) was expressed in High Five 5 cells by co-infection of recombinant alpha1 virus and recombinant beta1/gamma1 virus for 72 h at 27° C. Cells were harvested by centrifugation and lysed by 3 freeze/thaw cycles in PBS with 10% glycerol and protease inhibitor cocktail (Roche). After centrifugation AMPK a1b1g1 in the supernatant was captured by immobilized glutathione (GE Healthcare), impurities were washed away with PBS and AMPK alpha1beta1gamma1 was eluted with PBS containing 20 mM reduced gluthathione. The protein buffer was then exchanged to PBS with 10% glycerol and protein concentration was determined by UV absorbance.
The white 384-well Optiplates (cat.no. 6007299) were purchased from PerkinElmer. The V9101 ADP-Glo Kinase Assay and ultra pure ATP (V915A) was purchased from Promega. The substrate for AMPK (NH2-HMRSAMSGLHLVKRR_CONH2) was purchased from Upstate (12-355).
Compounds were tested in either serial dilutions or single dose concentrations. The serial compound dilutions were prepared in 100% DMSO automatically. The final DMSO concentration in the assay was 0.1%.
The Compound Stock Solutions were 10 mM in 100% DMSO. The compounds were solubilised at room temperature.
In the 384-well plates 1.25 ul of test compound in assay buffer was mixed with 1.25 ul of AMPK and 1.25 μl of the peptide (final concentration of 1 μM) and 1.25 μl of ATP (final concentration of 30 μM), both dissolved in assay buffer. This step was followed by an incubation time of 60 min. Then 5 μl of ADP Glo Reagent was added. This was followed by 40 min of incubation. Then 10 μl of Kinase Detection Reagent was admixed. The plates were sealed and after an incubation period of 30 min, the luminescence signal was measured in an Envision reader. All incubation steps were accomplished at room temperature.
Each assay microtiter plate contained wells with vehicle controls instead of compound (0.1% DMSO in water) as reference for the low signal (100% CTL, low signal), and wells with serial dilutions of AMP (final 30 μM) as reference for high signals.
The luminescence signal generated was proportional to the ADP concentration produced and was correlated with AMPK activity. The analysis of the data was performed by the calculation of the percentage of ATP consumption of AMPK in the presence of the test compound compared to the consumption of ATP in the presence of AMPK without compound. (RLU(sample)/RLU(low control))*100[RLU=relative luminescence units]
An activator of the AMPK enzyme gave values above 100% CTL.
EC50 values based on dose response curves are calculated with the XIFIT software using the 4 Parameter Logistic Model or Sigmoidal Dose-Response Model.

T1 sequence (Q13131 whole entry): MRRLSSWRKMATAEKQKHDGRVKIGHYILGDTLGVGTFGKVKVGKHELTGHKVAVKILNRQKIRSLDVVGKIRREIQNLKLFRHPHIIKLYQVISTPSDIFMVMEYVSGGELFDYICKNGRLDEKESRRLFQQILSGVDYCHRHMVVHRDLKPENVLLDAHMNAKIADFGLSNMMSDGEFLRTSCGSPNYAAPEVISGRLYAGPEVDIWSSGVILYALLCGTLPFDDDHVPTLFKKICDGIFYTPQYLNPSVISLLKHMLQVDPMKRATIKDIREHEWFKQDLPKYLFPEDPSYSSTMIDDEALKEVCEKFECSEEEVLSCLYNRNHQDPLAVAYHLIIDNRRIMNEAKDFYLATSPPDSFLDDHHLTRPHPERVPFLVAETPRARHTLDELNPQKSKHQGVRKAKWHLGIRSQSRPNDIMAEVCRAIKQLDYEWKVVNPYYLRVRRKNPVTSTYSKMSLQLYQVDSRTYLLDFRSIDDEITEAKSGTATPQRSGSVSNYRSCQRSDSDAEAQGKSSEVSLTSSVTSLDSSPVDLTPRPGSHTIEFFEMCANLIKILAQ
T1 sequence (Q9Y478 whole entry): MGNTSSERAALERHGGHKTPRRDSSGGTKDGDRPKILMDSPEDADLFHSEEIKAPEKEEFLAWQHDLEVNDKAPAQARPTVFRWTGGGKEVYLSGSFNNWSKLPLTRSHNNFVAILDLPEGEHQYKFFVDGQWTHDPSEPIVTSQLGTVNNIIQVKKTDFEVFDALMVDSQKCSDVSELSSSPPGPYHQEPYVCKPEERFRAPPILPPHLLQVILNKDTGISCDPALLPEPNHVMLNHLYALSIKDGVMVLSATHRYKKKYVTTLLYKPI
T1 sequence (P54619 whole entry partner): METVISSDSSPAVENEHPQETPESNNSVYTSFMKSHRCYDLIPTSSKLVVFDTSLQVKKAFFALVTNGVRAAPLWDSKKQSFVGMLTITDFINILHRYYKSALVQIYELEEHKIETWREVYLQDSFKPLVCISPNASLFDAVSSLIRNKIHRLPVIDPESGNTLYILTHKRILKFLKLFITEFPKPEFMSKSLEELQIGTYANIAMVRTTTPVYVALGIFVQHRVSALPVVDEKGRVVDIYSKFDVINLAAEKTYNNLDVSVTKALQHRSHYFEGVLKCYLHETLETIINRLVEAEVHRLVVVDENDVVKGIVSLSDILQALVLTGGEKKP

Compound	EC50 [nM]
CS(=O)(=Nc1ccc(-c2nc3[nH]c(O[C@@H]4CO[C@H]5[C@@H]4OC[C@H]5O)nc3cc2Cl)cc1)c1ccncc1 (stereo partly drawn) [Example 26, N-(4-(6-Chloro-2-((3R,3aR,6R,6aR)-6-hydroxyhexahydrofuro[3,2-b]furan-3-yloxy)-3H-imidazo[4,5-b]pyridin-5-yl)phenyl)-S-methyl-S-(pyridin-4-yl)-sulfoximide]	145
CN=S(C)(=O)c1ccc(N2CCN(c3nc4[nH]c(O[C@@H]5CO[C@H]6[C@@H]5OC[C@H]6O)nc4cc3Cl)CC2)cc1 (stereo partly drawn) [Example 29, (3R,3aR,6R,6aR)-6-(6-Chloro-5-(4-(4-(N,S-dimethylsulfonimidoyl)phenyl)piperazin-1-yl)-3H-imidazo[4,5-b]pyridin-2-yloxy)hexahydrofuro[3,2-b]furan-3-ol]	725
CS(C)(=O)=Nc1ccc(-c2ccc(-c3nc4[nH]c(O[C@@H]5CO[C@H]6[C@@H]5OC[C@H]6O)nc4cc3Cl)cc2)nc1 [Example 30, N-(2-(4-(6-Chloro-2-((3R,3aR,6R,6aR)-6-hydroxyhexahydrofuro[3,2-b]furan-3-yloxy)-3H-imidazo[4,5-b]pyridin-5-yl)phenyl)pyridin-5-yl)-S,S-dimethylsulfoximide]	2
CS(C)(=O)=Nc1ccc(-c2ccc(-c3nc4[nH]c(O[C@@H]5CO[C@H]6[C@@H]5OC[C@H]6O)nc4cc3Cl)cn2)cc1 [Example 32, N-(4-{5-[6-Chloro-2-((3R,3aR,6R,6aR)-6-hydroxyhexahydrofuro[3,2-b]furan-3-yloxy)-3H-imidazo[4,5-b]pyridin-5-yl]-pyridin-2-yl}-phenyl)-S,S-dimethylsulfoximide]	13
CS(=N)(=O)[C@H]1CC[C@@H](c2ccc(-c3nc4[nH]c(O[C@@H]5CO[C@H]6[C@@H]5OC[C@H]6O)nc4cc3Cl)cc2)CC1 (stereo partly drawn) [Example 33, cis-(3R,3aR,6R,6aR)-6-(6-Chloro-5-[4-{4-(S-methylsulfonimidoyl)-cyclohexyl}-phenyl]-3H-imidazo[4,5-b]pyridin-2-yloxy)-hexahydro-furo[3,2-b]furan-3-ol]	265
CS(C)(=O)=NCc1cccc(-c2ccc(-c3nc4[nH]c(O[C@@H]5CO[C@H]6[C@@H]5OC[C@H]6O)nc4cc3Cl)cc2)n1 [Example 35, N-(2-(4-(6-Chloro-2-((3R,3aR,6R,6aR)-6-hydroxyhexahydrofuro[3,2-b]furan-3-yloxy)-3H-imidazo[4,5-b]pyridin-5-yl)phenyl)pyridin-6-ylmethyl)-S,S-dimethylsulfoximide]	87
CS(C)(=O)=Nc1ccnc(-c2ccc(-c3nc4[nH]c(O[C@@H]5CO[C@H]6[C@@H]5OC[C@H]6O)nc4cc3Cl)cc2)c1 [Example 37, N-(2-{4-[6-Chloro-2-((3R,3aR,6R,6aR)-6-hydroxyhexahydrofuro[3,2-b]furan-3-yloxy)-3H-imidazo[4,5-b]pyridin-5-yl]-phenyl}-pyridin-4-yl)-S,S-dimethylsulfoximide]	47
CS(C)(=O)=NCc1cccc(-c2ccc(-c3nc4[nH]c(O[C@@H]5CO[C@H]6[C@@H]5OC[C@H]6O)nc4cc3Cl)cc2)c1 [Example 38, N-(4′-(6-Chloro-2-((3R,3aR,6R,6aR)-6-hydroxyhexahydrofuro[3,2-b]furan-3-yloxy)-3H-imidazo[4,5-b]pyridin-5-yl)biphenyl-3-ylmethyl)-S,S-dimethylsulfoximide]	704
CS(C)(=O)=Nc1cnc(-c2ccc(-c3nc4[nH]c(O[C@@H]5CO[C@H]6[C@@H]5OC[C@H]6O)nc4cc3Cl)cc2)cn1 [Example 39, N-(5-{4-[6-Chloro-2-((3R,3aR,6R,6aR)-6-hydroxyhexahydrofuro[3,2-b]furan-3-yloxy)-3H-imidazo[4,5-b]pyridin-5-yl]-phenyl}-pyrazin-2-yl)-S,S-dimethylsulfoximide]	8
N=S1(=O)CC=C(c2ccc(-c3nc4[nH]c(O[C@@H]5CO[C@H]6[C@@H]5OC[C@H]6O)nc4cc3Cl)cc2)CC1 (stereo partly shown) [Example 40]	50
CS(=N)(=O)c1cccc(-c2ccc(-c3nc4[nH]c(O[C@@H]5CO[C@H]6[C@@H]5OC[C@H]6O)nc4cc3Cl)cc2)c1 (stereo partly drawn) [Example 41, (3R,3aR,6R,6aR)-6-(6-Chloro-5-(3′-(S-methylsulfonimidoyl)biphenyl-4-yl)-3H-imidazo[4,5-b]pyridin-2-yloxy)hexahydrofuro[3,2-b]furan-3-ol]	209
CS(C)(=O)=Nc1ccc(-c2ncc(-c3nc4[nH]c(O[C@@H]5CO[C@H]6[C@@H]5OC[C@H]6O)nc4cc3Cl)cn2)cc1 [Example 42, N-(4-{5-[6-Chloro-2-((3R,3aR,6R,6aR)-6-hydroxyhexahydrofuro[3,2-b]furan-3-yloxy)-3H-imidazo[4,5-b]pyridin-5-yl]-pyrimidin-2-yl}-phenyl)-S,S-dimethylsulfoximide]	410
CS(C)(=O)=Nc1ccc2c(c1)CN(c1ccc(-c3nc4[nH]c(O[C@@H]5CO[C@H]6[C@@H]5OC[C@H]6O)nc4cc3Cl)cc1)C2 [Example 43, N-(2-{4-[6-Chloro-2-((3R,3aR,6R,6aR)-6-hydroxyhexahydrofuro[3,2-b]furan-3-yloxy)-3H-imidazo[4,5-b]pyridin-5-yl]-phenyl}-2,3-dihydro-1H-isoindol-5-yl)-S,S-dimethylsulfoximide]	293
CS(C)(=O)=Nc1ccc2c(n1)CN(c1ccc(-c3nc4[nH]c(O[C@@H]5CO[C@H]6[C@@H]5OC[C@H]6O)nc4cc3Cl)cc1)C2 [Example 44, N-(6-{4-[6-Chloro-2-((3R,3aR,6R,6aR)-6-hydroxyhexahydrofuro[3,2-b]furan-3-yloxy)-3H-imidazo[4,5-b]pyridin-5-yl]-phenyl}-6,7-dihydro-5H-pyrrolo[3,4-b]pyridin-2-yl)-S,S-dimethylsulfoximide]	66
CS(C)(=O)=NCc1ccnc(-c2ccc(-c3nc4[nH]c(O[C@@H]5CO[C@H]6[C@@H]5OC[C@H]6O)nc4cc3Cl)cc2)c1 [Example 46, N-(2-(4-(6-Chloro-2-((3R,3aR,6R,6aR)-6-hydroxyhexahydrofuro[3,2-b]furan-3-yloxy)-3H-imidazo[4,5-b]pyridin-5-yl)phenyl)pyridin-4-ylmethyl)-S,S-dimethylsulfoximide]	37
CS(C)(=O)=Nc1cccc(-c2ccc(-c3nc4[nH]c(O[C@@H]5CO[C@H]6[C@@H]5OC[C@H]6O)nc4cc3Cl)cc2)n1 [Example 47, N-(6-{4-[6-Chloro-2-((3R,3aR,6R,6aR)-6-hydroxyhexahydrofuro[3,2-b]furan-3-yloxy)-3H-imidazo[4,5-b]pyridin-5-yl]-phenyl}-pyridin-2-yl)-S,S-dimethylsulfoximide]	67
CS(C)(=O)=NCc1ccc(-c2ccc(-c3nc4[nH]c(O[C@@H]5CO[C@H]6[C@@H]5OC[C@H]6O)nc4cc3Cl)cc2)nc1 [Example 48, N-(6-(4-(6-Chloro-2-((3R,3aR,6R,6aR)-6-hydroxyhexahydrofuro[3,2-b]furan-3-yloxy)-3H-imidazo[4,5-b]pyridin-5-yl)phenyl)pyridin-3-ylmethyl)-S,S-dimethylsulfoximide]	16
CS(=N)(=O)c1cnc(-c2ccc(-c3nc4[nH]c(O[C@@H]5CO[C@H]6[C@@H]5OC[C@H]6O)nc4cc3Cl)cc2)nc1 (stereo partly drawn) [Example 49, (3R,3aR,6R,6aR)-6-(6-Chloro-5-(4-(5-(S-methylsulfonimidoyl)pyrimidin-2-yl)phenyl)-3H-imidazo[4,5-b]pyridin-2-yloxy)hexahydrofuro[3,2-b]furan-3-ol]	26
CS(C)(=O)=NCc1cc(-c2ccc(-c3nc4[nH]c(O[C@@H]5CO[C@H]6[C@@H]5OC[C@H]6O)nc4cc3Cl)cc2)ccn1 [Example 53]	56
